Test [1] concerns the target T1, human TRPV1 receptor (hTRPV1) (Homo sapiens (Human), UniProt Q8NER1). The test is described as follows: Acid activation assay (pH 5.0, FLIPR intracellular Ca2+). It is filed as cell-based. The following applies: 37.5 μM compound; percentage of the maximal pH 5.0-induced response remaining; read-out: hTRPV1 H+ (max % remain). The method, then:
Dulbecco's modified Eagle's medium (DMEM) with 4.5 mg/mL D-glucose, fetal bovine serum, L-glutamine, and 2-morpholinoethanesulfonic acid (MES) were purchased from Sigma-Aldrich Co. (St. Louis, Mo.). Dulbecco's phosphate-buffered saline (DPBS) with Ca^2+, Mg^2+, and 1 mg/mL D-glucose (pH 7.4), Geneticin®, 0.25% trypsin-1 mM EDTA, and penicillin-streptomycin were purchased from Invitrogen Corp. (Carlsbad, Calif.). The FLIPR® Calcium 4 assay kit was purchased from Molecular Devices (Sunnyvale, Calif.).
(§1) The cDNAs for the human TRPV1 receptor (hTRPV1) were isolated by reverse transcriptase-polymerase chain reaction (RT-PCR) from human small intestine poly A+ RNA supplied by Clontech (Palo Alto, Calif.) using primers designed surrounding the initiation and termination codons identical to the published sequences (Hayes et al. Pain 2000, 88, 205-215). The resulting cDNA PCR products were subcloned into pCIneo mammalian expression vector (Promega) and fully sequenced using fluorescent dye-terminator reagents (Prism, Perkin-Elmer Applied Biosystems Division) and a Perkin-Elmer Applied Biosystems Model 373 DNA sequencer or Model 310 genetic analyzer. Expression plasmids encoding the hTRPV1 cDNA were transfected individually into 1321N1 human astrocytoma cells using Lipofectamine®. Forty-eight hours after transfection, the neomycin-resistant cells were selected with growth medium containing 800 μg/mL Geneticin (Gibco BRL). Surviving individual colonies were isolated and screened for TRPV1 receptor activity. Cells expressing recombinant homomeric TRPV1 receptors were maintained at 37° C. in DMEM containing 4 mM L-glutamine, 300 μg/mL G418 (Cal-biochem) and 10% fetal bovine serum under a humidified 5% CO2 atmosphere.
The functional activity of compounds at the TRPV1 receptor was determined by measurement of intracellular Ca^2+ levels ([Ca^2+]i) using the Fluorescence Imaging Plate Reader (FLIPR)^TETRA®. All compounds were tested over a 12-point one-half-log concentration range. Compound stocks, 10 mM, were prepared in DMSO, and diluted serially across a 384-well plate using a Bravo BenchCel workstation (Agilent Technologies, Santa Clara, Calif.).
On the day of the experiment growth medium was removed, and the no-wash FLIPR®Calcium-4 dye (λEX=470-495 nm, λEM=515-575 nm) was added to each well using the Multidrop® dispenser. Cells were incubated for 90-120 minutes in the dark at 25° C. Test compounds were dissolved in DMSO, and plates were prepared using an Agilent Bravo workstation (Agilent Technologies Inc., Santa Clara, Calif.). Compounds were added to the cells 3 minutes prior to the addition of a pH 5.0 solution. Reagents were delivered at a rate of 40 μL/sec, and the final assay volume was 80 μL. Acidic pH solutions were prepared by titration of DPBS/MES with 1 N HCl. The intensity of the fluorescence was captured and digitally transferred to an interfaced PC.

The target of test [2] is T1, human TRPV1 receptor (hTRPV1). The test is described as follows: Capsaicin activation assay (FLIPR intracellular Ca2+). Type of test: cell-based. The settings on record: inhibition of capsaicin-induced intracellular Ca2+ increase; compounds added 3 minutes prior to capsaicin; read-out: hTRPV1 cap. IC50. The method, then: Dulbecco's modified Eagle medium (D-MEM) (with 4.5 mg/mL glucose) and fetal bovine serum were obtained from Hyclone Laboratories, Inc. (Logan, Utah). Dulbecco's phosphate-buffered saline (D-PBS) (with 1 mg/mL glucose and 3.6 mg/l Na pyruvate, without phenol red), L-glutamine, hygromycin B, and Lipofectamine® were obtained from Life Technologies (Grand Island, N.Y.). G418 sulfate was obtained from Calbiochem-Novabiochem Corp. (San Diego, Calif.). Capsaicin (8-methyl-N-vanillyl-6-nonenamide) was obtained from Sigma-Aldrich, Co. (St. Louis, Mo.). Fluo-4 AM (N-[4-[6-[(acetyloxy)methoxy]-2,7-difluoro-3-oxo-3H-xanthen-9-yl]-2-[2-[2-[bis[2-[(acetyloxy)methoxy]-2-oxyethyl]amino]-5-methylphenoxy]ethoxy]phenyl]-N-[2-[(acetyloxy)methoxy]-2-oxyethyl]-glycine, (acetyloxy)methyl ester) was purchased from Molecular Probes (Eugene, Oreg.).
as §1, with “D-MEM” for “DMEM”
The functional activity of compounds at the TRPV1 receptor was determined by measurement of intracellular Ca^2+ levels ([Ca^2]i) using the Fluorescence Imaging Plate Reader (FLIPR)^TETRA®. All compounds were tested over a 12-point one-third-log concentration range. Compound stocks, 10 mM, were prepared in DMSO, and diluted serially across a 384-well plate using a Bravo BenchCel workstation (Agilent Technologies, Santa Clara, Calif.). A stock concentration of capsaicin (10 mM) was made in DMSO, and diluted in D-PBS to a final concentration of 200 nM (4×). On the day prior to the experiment, recombinant HEK293 cells that stably express either human or rat TRPV1 (hTRPV1-3) were removed from tissue culture flasks and plated in growth medium into black-walled clear-bottom 384-well Biocoat™ poly-D-lysine assay plates (BD Biosciences, Bedford, Mass.) using a Multidrop® dispenser (ThermoScientific, Waltham, Mass.). On the day of the experiment, growth medium was removed, and the no-wash FLIPR® Calcium-4 dye (λEX=470-495 nm, λEM=515-575 nm; Molecular Devices, Sunnyvale, Calif.) was added to each well using the Multidrop® dispenser. Cells were incubated for 90-120 minutes in the dark at room temperature. Test compounds were added to the cells 3 minutes prior to the addition of 200 nM capsaicin (4×), and the final assay volume was 80 μL. Fluorescence readings were made at 1 to 5 second intervals over the course of the experimental run. The peak increase in relative fluorescence units (minus baseline) was calculated, and expressed as a percentage of the 50 nM capsaicin (control) response. Curve-fits of the data were solved using a four-parameter logistic Hill equation in GraphPad Prism® (GraphPad Software, Inc., San Diego, Calif.), and IC50 values (concentration of the test compounds that inhibits 50% of the intracellular Ca^2+ concentration increase induced by capasin) were calculated.

The structures appear in SMILES notation.

The source of these data is US8796328B2, “TRPV1 antagonists” (AbbVie Inc., priority 2012, dated 2014).

A word on the IC50: it is the concentration that gives 50% inhibition.

T1 sequence (Q8NER1 whole entry): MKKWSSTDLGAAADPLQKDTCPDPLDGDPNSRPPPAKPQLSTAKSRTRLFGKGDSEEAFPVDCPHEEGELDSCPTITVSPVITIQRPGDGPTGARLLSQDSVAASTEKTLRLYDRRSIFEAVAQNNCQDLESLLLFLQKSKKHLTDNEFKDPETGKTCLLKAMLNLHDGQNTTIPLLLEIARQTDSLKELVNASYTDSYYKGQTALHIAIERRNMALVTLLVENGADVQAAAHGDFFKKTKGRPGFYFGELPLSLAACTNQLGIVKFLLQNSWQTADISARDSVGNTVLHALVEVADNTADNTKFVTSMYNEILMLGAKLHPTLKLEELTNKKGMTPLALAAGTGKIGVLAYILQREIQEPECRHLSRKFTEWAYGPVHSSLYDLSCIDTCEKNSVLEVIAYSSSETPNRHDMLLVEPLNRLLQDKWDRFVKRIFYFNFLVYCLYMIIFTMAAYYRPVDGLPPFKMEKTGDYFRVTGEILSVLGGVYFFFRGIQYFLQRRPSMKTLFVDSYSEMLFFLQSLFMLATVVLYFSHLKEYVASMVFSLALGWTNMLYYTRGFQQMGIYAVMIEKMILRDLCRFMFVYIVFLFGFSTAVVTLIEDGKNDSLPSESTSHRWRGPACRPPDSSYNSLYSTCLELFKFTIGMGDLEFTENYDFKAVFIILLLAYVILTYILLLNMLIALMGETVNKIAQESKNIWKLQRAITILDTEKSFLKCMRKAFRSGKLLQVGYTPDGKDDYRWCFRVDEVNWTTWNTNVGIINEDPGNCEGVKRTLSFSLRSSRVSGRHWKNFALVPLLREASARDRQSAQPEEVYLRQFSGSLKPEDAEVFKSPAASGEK

Turning to `CC(C)(C)c1ccc2c(c1)CC[C@H]2NC(=O)NCc1ccc(NS(C)(=O)=O)c(F)c1` [Example 1, N-{4-[({[(1R)-5-tert-butyl-2,3-dihydro-1H-inden-1-yl]carbamoyl}amino)methyl]-2-fluorophenyl}methanesulfonamide], in test [1], the remaining activity at 37.5 µM turned out to be 22%. For the same compound, the concentration for half-maximal inhibition (IC50) in test [2] worked out at 104 nM.

Turning to `CS(=O)(=O)Nc1ccc(CNC(=O)N[C@@H]2CCc3cc(Cl)ccc32)cc1F` [Example 3, N-{4-[({[(1R)-5-chloro-2,3-dihydro-1H-inden-1-yl]carbamoyl}amino)methyl]-2-fluorophenyl}methanesulfonamide], in test [1], the remaining activity at 37.5 µM came out at 86%. The IC50 in test [2] stood at 1810 nM.

In the case of `CS(=O)(=O)Nc1ccc(CNC(=O)N[C@@H]2CCc3cc(F)ccc32)cc1F` [Example 4, N-{2-fluoro-4-[({[(1R)-5-fluoro-2,3-dihydro-1H-inden-1-yl]carbamoyl}amino)methyl]phenyl}methanesulfonamide], in test [1], the remaining activity at 37.5 µM is 91%. Also, the IC50 in test [2] was 16500 nM.

With `CS(=O)(=O)Nc1ccc(CNC(=O)N[C@@H]2CCc3cc(C(F)(F)F)ccc32)cc1F` [Example 5, N-{2-fluoro-4-[({[(1R)-5-(trifluoromethyl)-2,3-dihydro-1H-inden-1-yl]carbamoyl}amino)methyl]phenyl}methanesulfonamide], the remaining activity at 37.5 µM in test [1] was found to be 88%. Further, in test [2], the IC50 was determined as 325 nM.

For the compound `CS(=O)(=O)Nc1ccc(CNC(=O)N[C@@H]2CC(CF)(CF)Oc3cc(Cl)ccc32)cc1F` [Example 6, N-{4-[({[(4R)-7-chloro-2,2-bis(fluoromethyl)-3,4-dihydro-2H-chromen-4-yl]carbamoyl}amino)methyl]-2-fluorophenyl}methanesulfonamide], in test [1], the remaining activity at 37.5 µM turned out to be 73%. The half-inhibitory concentration (IC50) in test [2] is 2900 nM.

For `CC1(C)C[C@@H](NC(=O)NCc2ccc(NS(C)(=O)=O)c(F)c2)c2ccc(F)cc2O1` [Example 7, N-{2-fluoro-4-[({[(4R)-7-fluoro-2,2-dimethyl-3,4-dihydro-2H-chromen-4-yl]carbamoyl}amino)methyl]phenyl}methanesulfonamide], the remaining activity at 37.5 µM in test [1] came to 18%. For the same compound, the IC50 in test [2] was determined as 747 nM.

Turning to `CCC1(CC)C[C@@H](NC(=O)NCc2ccc(NS(C)(=O)=O)c(F)c2)c2ccc(Cl)c(Cl)c2O1` [Example 8, N-{4-[({[(4R)-7,8-dichloro-2,2-diethyl-3,4-dihydro-2H-chromen-4-yl]carbamoyl}amino)methyl]-2-fluorophenyl}methanesulfonamide], the remaining activity at 37.5 µM in test [1] turned out to be 24%. For the same compound, the IC50 in test [2] was determined as 330 nM.

As to `CC1(C)C[C@@H](NC(=O)NCc2ccc(NS(C)(=O)=O)c(F)c2)c2ccc(C(F)(F)F)cc2O1` [Example 9, N-{4-[({[(4R)-2,2-dimethyl-7-(trifluoromethyl)-3,4-dihydro-2H-chromen-4-yl]carbamoyl}amino)methyl]-2-fluorophenyl}methanesulfonamide], the remaining activity at 37.5 µM in test [1] was 70%. Moreover, the IC50 in test [2] turned out to be 109 nM.

For `CS(=O)(=O)Nc1ccc(CNC(=O)N[C@@H]2CCOc3ccccc32)cc1F` [Example 12, N-[4-({[(4R)-3,4-dihydro-2H-chromen-4-ylcarbamoyl]amino}methyl)-2-fluorophenyl]methanesulfonamide], the remaining activity at 37.5 µM in test [1] turned out to be 87%. Further, the IC50 in test [2] was more than 37500 nM.

Take `CCC1(CC)C[C@@H](NC(=O)NCc2ccc(NS(C)(=O)=O)c(F)c2)c2cccc(F)c2O1` [Example 13, N-{4-[({[(4R)-2,2-diethyl-8-fluoro-3,4-dihydro-2H-chromen-4-yl]carbamoyl}amino)methyl]-2-fluorophenyl}methanesulfonamide]: the remaining activity at 37.5 µM in test [1] was 27%. Also, the IC50 in test [2] came to 418 nM.

As for `CCC1(CC)C[C@@H](NC(=O)NCc2ccc(NS(C)(=O)=O)c(F)c2)c2ccc(Cl)cc2O1` [Example 14, N-{4-[({[(4R)-7-chloro-2,2-diethyl-3,4-dihydro-2H-chromen-4-yl]carbamoyl}amino)methyl]-2-fluorophenyl}methanesulfonamide], the remaining activity at 37.5 µM in test [1] is 27%. The IC50 in test [2] worked out at 209 nM.

As for `CS(=O)(=O)Nc1ccc(CNC(=O)N[C@@H]2CC(CF)(CF)Oc3cc(OC(F)(F)F)ccc32)cc1F` [Example 15, N-{4-[({[(4R)-2,2-bis(fluoromethyl)-7-(trifluoromethoxy)-3,4-dihydro-2H-chromen-4-yl]carbamoyl}amino)methyl]-2-fluorophenyl}methanesulfonamide], in test [1], the remaining activity at 37.5 µM came to 85%. Besides, the concentration for half-maximal inhibition (IC50) in test [2] was 863 nM.

`CS(=O)(=O)Nc1ccc(CNC(=O)N[C@@H]2CC(CF)(CF)Oc3c(F)cc(F)cc32)cc1F` [Example 16, N-{4-[({[(4R)-6,8-difluoro-2,2-bis(fluoromethyl)-3,4-dihydro-2H-chromen-4-yl]carbamoyl}amino)methyl]-2-fluorophenyl}methanesulfonamide]: the remaining activity at 37.5 µM in test [1] was found to be 79%. Also, the IC50 in test [2] amounted to 22800 nM.

Consider `CS(=O)(=O)Nc1ccc(CNC(=O)N[C@@H]2CC3(CCC3)Oc3ccc(F)cc32)cc1F` [Example 17, N-{2-fluoro-4-[({[(4R)-6-fluoro-3,4-dihydrospiro[chromene-2,1′-cyclobutan]-4-yl]carbamoyl}amino)methyl]phenyl}methanesulfonamide], for which the remaining activity at 37.5 µM in test [1] turned out to be 69%. In addition, the IC50 in test [2] worked out at 3030 nM.
